Laboratory results: patent US7816074B2, “α4 β2 δGABA-A receptors as a strategy for PMS and alcoholism” (priority 2003, dated 2010)
Like-named read-outs stand apart in the source and are kept apart here.

How the values were obtained:
α1β2 receptors = biological target: T1, α1β2 receptors (Rattus norvegicus, UniProt P62813+P63138); experiment: Two-electrode voltage-clamp of recombinant GABAA receptors in oocytes; assay type: cell-based, expressed in Xenopus laevis oocytes; conditions: oocytes injected with α1+β2
T1 construct: expressed in transfected cells; host or cells: oocytes injected with cRNA (Xenopus laevis is named only)
Description: Plasmids with inserts encoding GABAA receptor subunit sequence for rat α1 (62), rat β2 (83), rat α2 (62), rat α5 (62), mouse α4 (37), mouse β3 (82), rat β1 (83), rat γ2S (63), human δ (12), and human ε (11) were produced by subcloning each separately into an appropriate cloning vehicle such as PCDM8, pCDNA3.1 or pGHEMHE vectors (Invitrogen, Carlsbad Calif.) using a T7 promoter and standard subcloning techniques (59). Plasmids were linearized with an appropriate restriction enzyme at a site 3′ to the insert and cRNAs were synthesized using T3 or T7 polymerase (mMessage mMachine, Ambion, Tex.). The size of the cRNA was verified and RNA was quantified by ethidium bromide staining after electrophoresis on 1% agarose gels.
The preparation, injection, and maintenance of oocytes were carried out as described previously (78). […]
Voltage-clamp recording was carried out 1 to 3 days after injection of cRNAs. […] Oocytes were voltage-clamped at −70 mV and macroscopic currents were recorded with a two-electrode voltage-clamp using a Warner Instruments OC-725 amplifier as described previously (79). Currents were recorded on a chart recorder or by using Axograph on a Macintosh computer. […]

female Long Evans rats = experiment: Acoustic startle response (ASR); assay type: in vivo, rat; conditions: for decrease of peak ASR: diestrous and sham controls
Experimental: Animals were tested in a stabilimeter device (SR-Lab Startle Response System, San Diego Instruments, Inc., San Diego, Calif.) that permits vertical movement of a Plexiglas platform contained within a lit, well-ventilated sound-attenuating chamber (26). The amplitude of movement is detected by a piezoelectric device with a voltage output proportional to platform displacement. The analog output of the accelerometer is then amplified and digitized before computer analysis. Five minutes after i.p. administration of 10% ethanol (0.05-1.6 g/kg) or saline vehicle (1.5 ml volume) or 25 minutes after 4,5,6,7-tetrahydroisoxazolo[5,4-c]pyridin-3-ol injection (3 mg/kg, i.p.), animals were placed in the chamber for a 5 minutes acclimation period. […] Four acoustic stimuli (116 dB, 40 ms duration) were then presented at random intervals once every 10-15 seconds via a white-noise generator through speakers positioned on either side of the cage. […] For each acoustic stimulus, the amplitude and integrated response (amplitude and duration) were determined and normalized to the weight of the animal. Values for the integrated response after administration of each dose of ethanol or 4,5,6,7-tetrahydroisoxazolo[5,4-c]pyridin-3-ol were averaged and expressed as a fraction of the saline control average for the indicated treatment (progesterone withdrawal versus control) group in order to minimize variability between groups. […] It is also routinely used to assess behavioral excitability after withdrawal from BDZs and ethanol (73).
Animals were tested in a stabilimeter device (SR-Lab Startle Response System, San Diego Instruments, Inc.) that permitted vertical movement of a Plexiglas cage contained within a lit, well-ventilated, sound-attenuating chamber. The amplitude of movement was detected by a piezoelectric device with a voltage output proportional to cage displacement. The analog output of the accelerometer was amplified and digitized before computer analysis (15). Five minutes following intraperitoneal administration of alcohol (0.2 or 0.4 g/kg) or saline vehicle (1.5 ml volume), animals were placed in the chamber for 5 a minute acclimation period. Five acoustic stimuli (116 dB, 40 msec duration) were then presented once every 10-15 seconds via a white-noise generator through speakers positioned on either side of the cage. For each acoustic stimulus, the integrated response (amplitude and duration) was averaged across a 100 msec post-stimulus time period and the response latency determined. Both values were normalized to the weight of the animal. Values for the integrated response for the first noise stimulus following administration of each dose of alcohol were averaged and expressed as a fraction of the saline control average for the indicated treatment (P Wd versus control) group. […] It is routinely used to assess behavioral excitability following withdrawal from benzodiazepiness (48) and alcohol (73), and is known to be modified by GABA modulators, such as diazepam (11), and by local infusion of excitatory compounds into dorsal hippocampus (85).

α4β2δ GABAA receptors = biological target: T2, α4β2δ GABAA receptors (UniProt O14764+P63138+Q9D6F4); conditions: oocytes (ref. 67), cited from earlier work
T2 construct: expressed in transfected cells
T2 sequence (Q9D6F4 36-552): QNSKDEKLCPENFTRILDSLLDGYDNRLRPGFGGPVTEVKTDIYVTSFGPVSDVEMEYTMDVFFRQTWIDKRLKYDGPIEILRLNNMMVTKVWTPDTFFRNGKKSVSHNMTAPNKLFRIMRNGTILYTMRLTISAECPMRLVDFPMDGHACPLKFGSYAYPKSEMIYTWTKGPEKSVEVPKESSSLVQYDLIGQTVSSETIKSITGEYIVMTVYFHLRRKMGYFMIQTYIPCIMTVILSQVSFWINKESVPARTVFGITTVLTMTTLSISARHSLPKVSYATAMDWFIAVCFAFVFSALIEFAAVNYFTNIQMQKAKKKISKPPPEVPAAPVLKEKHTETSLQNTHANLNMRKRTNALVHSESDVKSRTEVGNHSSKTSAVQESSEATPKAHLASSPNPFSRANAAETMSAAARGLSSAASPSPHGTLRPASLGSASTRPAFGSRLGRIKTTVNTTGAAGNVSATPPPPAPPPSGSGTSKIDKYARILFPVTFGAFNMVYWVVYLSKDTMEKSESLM
T2 sequence (P63138 25-474 limits assumed): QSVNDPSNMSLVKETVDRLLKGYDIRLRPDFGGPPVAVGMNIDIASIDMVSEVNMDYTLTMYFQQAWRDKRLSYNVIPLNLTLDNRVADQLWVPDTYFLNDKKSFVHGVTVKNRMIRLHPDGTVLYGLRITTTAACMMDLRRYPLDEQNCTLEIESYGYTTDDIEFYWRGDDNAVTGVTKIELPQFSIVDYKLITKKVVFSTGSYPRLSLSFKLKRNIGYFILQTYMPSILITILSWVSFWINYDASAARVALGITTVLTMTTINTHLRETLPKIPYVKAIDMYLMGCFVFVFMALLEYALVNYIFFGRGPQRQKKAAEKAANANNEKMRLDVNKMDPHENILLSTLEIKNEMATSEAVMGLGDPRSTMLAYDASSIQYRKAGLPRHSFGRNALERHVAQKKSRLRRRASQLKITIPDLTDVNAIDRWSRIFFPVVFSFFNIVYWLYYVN
T2 sequence (O14764 17-452 limits assumed): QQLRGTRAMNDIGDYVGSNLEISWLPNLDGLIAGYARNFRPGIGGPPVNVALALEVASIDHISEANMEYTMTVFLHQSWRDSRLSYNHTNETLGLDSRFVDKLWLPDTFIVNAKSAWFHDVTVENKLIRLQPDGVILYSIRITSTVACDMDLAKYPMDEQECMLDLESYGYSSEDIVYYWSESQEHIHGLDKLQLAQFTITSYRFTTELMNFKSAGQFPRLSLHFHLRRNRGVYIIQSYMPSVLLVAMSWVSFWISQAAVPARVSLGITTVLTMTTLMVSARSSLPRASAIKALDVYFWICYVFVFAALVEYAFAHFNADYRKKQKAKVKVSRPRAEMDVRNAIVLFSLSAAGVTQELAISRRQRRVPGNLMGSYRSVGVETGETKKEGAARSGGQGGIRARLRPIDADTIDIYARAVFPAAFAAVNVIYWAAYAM

T1 sequence (P62813 28-455): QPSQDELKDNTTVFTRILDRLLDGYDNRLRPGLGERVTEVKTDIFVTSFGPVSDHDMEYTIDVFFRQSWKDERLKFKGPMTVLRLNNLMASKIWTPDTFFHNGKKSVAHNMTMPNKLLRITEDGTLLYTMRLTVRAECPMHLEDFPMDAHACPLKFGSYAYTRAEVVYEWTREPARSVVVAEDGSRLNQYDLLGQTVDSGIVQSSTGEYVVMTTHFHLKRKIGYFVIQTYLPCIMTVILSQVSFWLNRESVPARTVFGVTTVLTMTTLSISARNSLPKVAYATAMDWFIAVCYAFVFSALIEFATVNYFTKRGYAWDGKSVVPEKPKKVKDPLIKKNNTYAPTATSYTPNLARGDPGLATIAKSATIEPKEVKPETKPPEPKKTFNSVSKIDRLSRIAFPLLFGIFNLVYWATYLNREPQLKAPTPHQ
T1 sequence (P63138 25-474 limits assumed): as the sequence (P63138 25-474 limits assumed) above

responses to GABA in presence of alcohol, % of control (α1β2 receptors): 88-95 % of control
Structure (SMILES): CCO [ethanol]
effect on acoustic startle response (female Long Evans rats; alcohol 0.2-0.4 g/kg in vivo, after progesterone withdrawal (Example III)): decreased the acoustic startle response | effect on ASR (female Long Evans rats; ethanol 0.05 g/kg i.p., P withdrawal and diestrous control animals): equally ineffective | attenuation of average peak and integrated startle responses (female Long Evans rats; ethanol 0.2-0.4 g/kg i.p., after P withdrawal): about 70% | attenuation of startle responses (female Long Evans rats; ethanol 0.2-0.4 g/kg i.p., diestrous and sham control animals): not observed | decrease of peak ASR (female Long Evans rats; ethanol 0.2 g/kg): ineffective | effect on ASR (female Long Evans rats; ethanol 0.8-1.2 g/kg i.p., P withdrawn animals): ineffective | effect on ASR (female Long Evans rats; ethanol 0.8-1.2 g/kg i.p., both control groups): significantly decreased | decrease of peak ASR (female Long Evans rats; ethanol 0.8 g/kg): effective | effect on ASR (female Long Evans rats; ethanol 1.6 g/kg i.p., P withdrawal and diestrous control animals): decreased the ASR | effect on α4β2δ GABAA receptor (α4β2δ GABAA receptors; ethanol 1-3 mM): potentiated | effect on α4β2δ GABAA receptor (α4β2δ GABAA receptors; ethanol >10 mM): ineffective
